Test systems include SF-295 CNS; NCI-H226 lung; MOLT-4 leukemia; RPMI-8226 leukemia; M14 melanoma; TK-10 renal; CAKI-1 renal; PC-3 prostate; MCF7 breast.
Holding throughout (experiment): inhibition of tumour cell growth, NCI panel, 48 h

Consider 13 compounds from PubChem BioAssay (NCI).

Each structure is given as a SMILES string.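 Each compound was tested at five concentrations against cells in 96-well plates for 48 hours. Abbreviation: GI50, concentration required for 50% inhibition of growth. TGI is the concentration that stops growth completely.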

Turning to `O=S(=O)([O-])c1ccc(N=Cc2ccccc2[O-])cc1.O=S(=O)([O-])c1ccc(N=Cc2ccccc2[O-])cc1.[O]=[U+2]=[O]`, the GI50 in the experiment on SF-295 CNS is over 100 µM; in the experiment on NCI-H226 lung it was over 100 µM; in the experiment on MOLT-4 leukemia, 64.1 µM; with RPMI-8226 leukemia, over 100 µM; in the experiment with M14 melanoma, over 100 µM; with TK-10 renal, 30.7 µM. Moreover, the TGI was over 100 µM in the experiment on SF-295 CNS; over 100 µM in the experiment with NCI-H226 lung; over 100 µM in the experiment on MOLT-4 leukemia; over 100 µM in the experiment with RPMI-8226 leukemia; over 100 µM in the experiment on M14 melanoma; 71.7 µM in the experiment on TK-10 renal.
Consider `OC(c1cc(-c2cccc(Cl)c2)nc2ccccc12)C1CCCCN1` (stereo unspecified), for which the GI50 is 1.59 µM in the experiment on SF-295 CNS; 1.6 µM in the experiment with MOLT-4 leukemia; 2.68 µM in the experiment with RPMI-8226 leukemia; 1.24 µM with CAKI-1 renal; 1.4 µM with PC-3 prostate; 1.91 µM with M14 melanoma. In addition, in the experiment on TK-10 renal, the GI50 was 2.12 µM. The TGI came out at 3.22 µM in the experiment on SF-295 CNS; 4.14 µM with MOLT-4 leukemia; 6.45 µM in the experiment on RPMI-8226 leukemia; 2.72 µM in the experiment with CAKI-1 renal; 2.84 µM in the experiment on PC-3 prostate; 3.74 µM in the experiment with M14 melanoma. The TGI in the experiment with TK-10 renal amounted to 4.48 µM.
`O=C(COc1ccc(/C=C2\COc3ccccc3C2=O)cc1)Nc1nccs1`: the GI50 is 3.1 µM in the experiment with SF-295 CNS; 14.4 µM with NCI-H226 lung; 1.6 µM in the experiment with MOLT-4 leukemia; 2.25 µM with RPMI-8226 leukemia; 7.55 µM in the experiment on CAKI-1 renal; 3.95 µM with PC-3 prostate. Besides, the GI50 in the experiment on M14 melanoma was 6.71 µM; in the experiment with TK-10 renal it was 28.7 µM; in the experiment with MCF7 breast, 3.92 µM. In addition, the TGI in the experiment with SF-295 CNS was determined as 12.8 µM; in the experiment with NCI-H226 lung it was 29.9 µM; with MOLT-4 leukemia it was 3.76 µM; in the experiment on RPMI-8226 leukemia, 6.28 µM; with CAKI-1 renal it was 20.7 µM; in the experiment with PC-3 prostate, 28.5 µM. The values for the TGI with M14 melanoma, in the experiment with TK-10 renal and in the experiment with MCF7 breast were 20 µM, 58.5 µM and 14.2 µM, respectively.
Take `Cc1cc([N+](=O)[O-])ccc1NC(=O)C(=O)C(C(=O)c1ccccc1-c1ccccc1)C1OC(=O)c2ccccc21` (stereo unspecified): the TGI in the experiment with SF-295 CNS was 50.9 µM; with NCI-H226 lung, 28.5 µM; with MOLT-4 leukemia, 72.2 µM; with RPMI-8226 leukemia it was 98 µM; with CAKI-1 renal it was 59.5 µM; in the experiment with M14 melanoma it was 27.4 µM. The TGI with TK-10 renal came to 33.8 µM.
For the compound `O=C1/C(=N\O)c2ccccc2S1(=O)=O`, the TGI is over 100 µM in the experiment on SF-295 CNS; over 100 µM in the experiment with NCI-H226 lung; over 100 µM in the experiment with MOLT-4 leukemia; over 100 µM in the experiment on RPMI-8226 leukemia; 83.7 µM in the experiment with CAKI-1 renal; over 100 µM in the experiment on M14 melanoma. This compound returned a TGI with TK-10 renal of over 100 µM.
As for `COc1c(C)cc(O)cc1C=O`, the TGI with SF-295 CNS, in the experiment on NCI-H226 lung, in the experiment on MOLT-4 leukemia, in the experiment on RPMI-8226 leukemia, with CAKI-1 renal and with M14 melanoma was over 100 µM throughout. The compound also had a TGI in the experiment on TK-10 renal of over 100 µM.
Turning to `CN(C)c1ccc(/C=C/C(=O)[O-])cc1.CN(C)c1ccc(/C=C/C(=O)[O-])cc1.[Cu+2]`, the TGI in the experiment with SF-295 CNS, with NCI-H226 lung, in the experiment with MOLT-4 leukemia, in the experiment on RPMI-8226 leukemia, in the experiment on CAKI-1 renal and in the experiment on M14 melanoma was over 100 µM in each case. The compound also displayed a TGI in the experiment on TK-10 renal of over 100 µM. For the same compound, the GI50 in the experiment on TK-10 renal is over 100 µM.
On to `COc1cc(/C=C2\C[C@H]3[C@@H]4CC=C5C[C@@H](O)CC[C@]5(C)[C@H]4CC[C@]3(C)[C@H]2O)ccc1OCCN1CCCC1`, for which the GI50 is 13.6 µM in the experiment with SF-295 CNS; 9.55 µM in the experiment on NCI-H226 lung; 2.46 µM in the experiment with MOLT-4 leukemia; 5.53 µM with RPMI-8226 leukemia; 10.2 µM in the experiment on CAKI-1 renal; 7.4 µM in the experiment on PC-3 prostate. The GI50 in the experiment with M14 melanoma was 8.16 µM; with TK-10 renal it was 11.7 µM; in the experiment on MCF7 breast, 16.4 µM. For the same compound, the TGI came out at 37 µM in the experiment with SF-295 CNS; 22.3 µM in the experiment with NCI-H226 lung; 11.3 µM in the experiment with MOLT-4 leukemia; 25.5 µM in the experiment with RPMI-8226 leukemia; 22.1 µM in the experiment with CAKI-1 renal; 15.1 µM with PC-3 prostate. Also, the TGI with M14 melanoma was 18.3 µM; with TK-10 renal, 24.3 µM; with MCF7 breast, over 50 µM.
Take `CCOC(=O)C1SC(=Nc2cccc(Cl)c2C)N=C1C` (stereo unspecified): the TGI in the experiment on SF-295 CNS worked out at 39.7 µM; in the experiment on NCI-H226 lung it was 72.6 µM; in the experiment on MOLT-4 leukemia it was 78.8 µM; in the experiment on RPMI-8226 leukemia it was 69.9 µM; in the experiment on TK-10 renal it was 73.3 µM.
Regarding `CC1=Nc2ccccc2NC(c2ccoc2)C1` (stereo unspecified), the TGI in the experiment on SF-295 CNS, in the experiment with NCI-H226 lung, in the experiment with MOLT-4 leukemia, in the experiment on RPMI-8226 leukemia, in the experiment on CAKI-1 renal and in the experiment on M14 melanoma was over 100 µM throughout. For the same compound, in the experiment on TK-10 renal, the TGI was over 100 µM.
Consider `COC(=O)C1=Cc2cc(OC)c(OC)c(OC)c2[C@H](c2cc(OC)c(OC)c(OC)c2)C1C(=O)OC` (stereo partly specified), for which the TGI in the experiment with SF-295 CNS, in the experiment on NCI-H226 lung, in the experiment on MOLT-4 leukemia, with RPMI-8226 leukemia, with CAKI-1 renal and with M14 melanoma was over 100 µM in each case. The compound also displayed a TGI in the experiment with TK-10 renal of over 100 µM.
In the case of `c1ccc([CH2][Sn]([CH2]c2ccccc2)([O]c2cccc3cccnc23)[O]c2cccc3cccnc23)cc1`, the GI50 was 0.579 µM in the experiment with SF-295 CNS; 1.38 µM in the experiment with NCI-H226 lung; 0.92 µM with CAKI-1 renal; 0.46 µM in the experiment on M14 melanoma; 1.67 µM with TK-10 renal. For the same compound, the TGI in the experiment on SF-295 CNS turned out to be 1.92 µM; in the experiment on NCI-H226 lung, 2.85 µM; in the experiment with CAKI-1 renal it was 2.2 µM; with M14 melanoma it was 1.75 µM; with TK-10 renal it was 3.1 µM.
Turning to `COC(=O)C(Cc1nc2ccccc2[nH]c1=O)/C(=N\NC(C)(C)C)C(=O)Nc1c(C)cc(Br)cc1C` (stereo unspecified), the TGI with SF-295 CNS is over 100 µM; with NCI-H226 lung, 54.4 µM; in the experiment on MOLT-4 leukemia, 28.7 µM; with RPMI-8226 leukemia, over 100 µM; in the experiment with CAKI-1 renal, 88.9 µM; with M14 melanoma, 49.3 µM.
